The values below come from patent US6218365A, “Serine protease inhibitors” (Akzo Nobel N.V., priority 1996, dated 2001).

For this assay, the target named is T1, Human thrombin (Homo sapiens, UniProt P00734).
T1 construct: purchased Centraal Laboratorium voor Bloedtransfusie, Amsterdam, The Netherlands
Briefly: Anti-thrombin assay (hydrolysis of chromogenic substrate S-2238 by thrombin). To be noted: final concentration causing 50% inhibition of the maximum absorbance of the blank; substrate S-2238, TNP buffer, 37° C. Type of assay: biochemical. As for the experimental part:
Thrombin (Factor IIa) is a factor in the coagulation cascade. The anti-thrombin activity of compounds of the present invention was assessed by measring spectrophotometrically the rate of hydrolysis of the chromogenic substrate s-2238 exterted by thrombin. Ths assay for anti-thrombin activity in a buffer system was used to assess the IC50 -value of a test compound.
Test medium: Trometbine-NaCl-polyethylene glycol 6000 (TNP) buffer. Reference compomd: 12581 (Kabi) Vehicle: TNP buffer. Solubilisation can be assisted with dimethylsulphoxide, methanol, ethanol, acetonitrile or tert.-butyl alcohol which are without adverse effects in concentrations up to 2.5% in the final reaction mixture.
Reagents*: 1. Tromethamine-NaCl (TN) buffer. Composition of the buffer: Tromethaine (Tris) 6.057 g (50 mmol), NaCl 5.844 g (100 mmol), water to 1 l. The pH of the solution is adjusted to 7.4 at 37° C. with HCl (10 mmol·l^-1). 2. TNP buffer: Polyethylene glycol 6000 is dissolved in TN buffer to give a concentration of 3 g·l^-1 3. S-2238 solution: One vial S-2238 (25 mg; Kabi Diagnostica, Sweden) is dissolved in 20 ml TN buffer to give a concentration of 1.25 mg·ml^-1 (2 mmol l^-1). 4. Thrombin solution: Human thrombin (16 000 nKat·vial^-1; Centraal Laboratorium voor Bloedtransfusie, Amsterdam, The Netherlands) is dissolved in TNP buffer to give a stock solution of 835 nKat·ml^-1. Immediately before use this solution is diluted with TNP buffer to give a concentration of 3.34 nKat·ml^-1.
The test and reference compounds are dissolved in Milli-Q water to give stock concentrations of 10^-2 mol·l^31 1. Each concentration is stepwise diluted with the vehicle to give concentrations of 10^-3, 10^31 4 and 10^-5 mol·l^-1. The dilutions, including the stock solution, are used in the assay (fina concentrations in the reaction mixture: 3·10^-3; 10^31 3; […]; 3·10^-5; 10^-5; 3·10^-6 and 10^-6 mol·l^-1, respectively).
At room temperature 0.075 ml and 0.025 ml test compound or reference compound solutions or vehicle are alternately pipetted into the wells of a microtiter plate and these solutions are diluted with 0.115 ml and […] TNP buffer, respectively. An aliquot of 0.030 ml S-2238 solution is added to each well and the plate is preheated and pre-incubated with shaking in an incubator (Amersham) for 10 min. at 37° C. Following pre-incubation the hydrolysis of S-2238 is started by addition of 0.030 ml thrombin solution to each well. The plate is incubated (with shaking for 30 s) at 37° C. Starting after 1 min of incubation, the absorbance of each sample at 405 nm is measured every 2 min. for a period of 90 min. using a kinetic microtiter plate reader (Twinreader plus, Flow Laboratories).
All data are collected in an IBM personal computer using LOTUS-MEASURE. For each compound concentration (expressed in mol·l^-1 reaction mixture) and for the blank the absorbance is plotted versus the reaction time in min.
Evaluation of responses: For each final concentration the maximum absorbance was calculated from the assay plot. The IC50 -value (final concentration, expressed in μmol·l^-1, causing 50% inhibition of the maximum absorbance of the blank) was calculated using the logit transformation analysis according to Hafier et al. (Arzneim.-Forsch.ADrug Res. 1977; 27(II): 1871-3).
On to “HOOC--CH2 --D--Cha--Pro--Ppa.PSI.[COCO]--NHMe [Example 31]”, for which the IC50 (in general, the point on the concentration scale where inhibition reaches its midpoint) stood at 245 nM.
With “HOOC--CH2 --p--Cl--D--Phe--Pro--Ppa--(2-thiazolyl) [Example 47]” the figure was 2830 nM; with “EthylSOx --D--Phe--Pr0--.PSI.[COCO]--NH2 [Example 38]”, 1800 nM; with “HOOC--CH2 --D--Phe--Pro--Ppa.PSI.[COCO]--OH [Example 3]”, 540 nM.
With “HOOC--CH2 --D--Coa--Pro--Ppa--(2-thiazolyl) [Example 53]” the figure was 2600 nM.
On to “3,3-Diphenyipropionyl--Pro--Ppa.PSI.[COCO]--OH [Example 15]”, for which the IC50 came out at 950 nM.
